Reference: patent US5219872A, “Compounds of 1,2,5,6-tetrahydropyridin-3-carboxaldehyde oxime which are useful as cholinergic agents” (Roussel UCLAF, priority 1986, dated 1993)
Counter-ions that a name gives are not always drawn. Like-named read-outs stand apart in the source and are kept apart here.

How the values were obtained:
Diarrhoea activity = settings: rat, in vivo, po
Protocol: Male rats (CD1 Charles Rivers) were used, weighing 25-30 g, fasting for 6 hours. The compounds were administered by oral route, by means of an oesophagic probe, dissolved at 0.5% in methocel. The controls received only the vehicle (20 ml/Kg).
1: faeces moderately soft with or without formation of a halo of humidity
2: faeces moderately soft with formation of a well defined circle of humidity,
3: faeces soft, with formation of a large circle of humidity,
4: faeces without consistency with formation of a very large circle of humidity.

[1] = Hypothermic activity (central cholinomimetic activity); assay type: in vivo; settings: Mus musculus, read-out: Effective dose (-1° C.)
Protocol: (§1) Male mice (CD1 Charles Rivers) were used, weighing 25-30 g, fasting for 6 hours. The body temperature was noted by means of a thermo-couple, inserted in the rectum for about 1.5 cm and connected to an electric temperature indicator.
(§2) The degree of hypothermia was evaluated as the difference between the treated and the control animals, and the dose was determined which was necessary to reduce the body temperature by 1° C.

[2] = Duration of action: variations of the body temperature; assay type: in vivo, mouse; settings: dose mg/kg: Example 3 0,15, 7 1,25
Protocol: as §1, §2
The duration of action of the products was evaluated using doses of equal ability to cause a reduction of body temperature of 1°-1,5° C.

[3] = tested on: patients having a memory defect; settings: intravenous route; Sitaram 1978, Christie 1981; cited from earlier work
[4] = tested on: isolated ileum from guinea-pigs; experiment: Isolated guinea-pig ileum: contracting (agonist) activity; settings: Cavia porcellus, read-out: pD2 (negative logarithm of the dose which produces 50% of the maximum effect) (converted)
Protocol: Sections of ileum were removed from guinea-pigs killed by decapitation. […] The contracting effect of the compounds was detected, with an isometric transducer connected to a recorder. The products under test were added at scalar concentrations between 1×10^-3 and 1×10^-8 moles.
The agonist activity was expressed in pD2 (negative logarithm of the dose which produces 50% of the maximum effect.)

[5] = cited from earlier work
in vivo = settings: rat, oral route, male rats CD1, fasting 16 hours, mortality in seven days
Protocol: Male rats (CD1 Charles Rivers) were used, weighing […], fasting for 16 hours. […] The mortality was checked in the seven days following the treatment.

[6] = tested on: isolated ileum from guinea-pigs (response induced with acetylcholine); experiment: Isolated guinea-pig ileum: antagonist activity against acetylcholine; settings: Cavia porcellus; antagonist activity vs acetylcholine; Tyrode's solution 37° C.; products added between 1×10^-3 and 1×10^-8 moles; read-out: ED50 (dose inhibiting 50% of the maximum response induced with acetylcholine)
Protocol: ILEUM FROM GUINEA-PIGS Sections of ileum were removed from guinea-pigs killed by decapitation. The isolated ileum was suspended in a bath containing 10 ml of Tyrode's solution thermo-regulated at 37° C. and aerated with a mixture of O2 (95%) and CO2 (5%). The contracting effect of the compounds was detected, with an isometric transducer connected to a recorder. The products under test were added at scalar concentrations between 1×10^-3 and 1×10^-8 moles. The products endowed with contracting activity were checked against atropine or hexamethonium to establish whether the activity was of muscarine type or nicotine type. The possible antagonist activity of the products was tested against acetylcholine.

[7] = os, 0 minutes, 8 0,5, 10 0,5, arecoline HBr 200
[8] = os, 30 minutes, 8 0,5, 10 0,5, arecoline HBr 200, ** p < 0,01 vs controls (all values)
[9] = os, 60 minutes, 8 0,5, 10 0,5, arecoline HBr 200, ** p < 0,01 vs controls (all values)
[10] = os, 120 minutes, 8 0,5, 10 0,5, arecoline HBr 200, ** p < 0,01 for Example 7 only
[11] = os, 180 minutes, 8 0,5, 10 0,5, arecoline HBr 200
[12] = sc, 30 minutes, 8 1, 10 0,75, arecoline HBr 3,5, ** p < 0,01 vs controls (all values)
[13] = sc, 60 minutes, 8 1, 10 0,75, arecoline HBr 3,5, ** p < 0,01 for Examples 3, 7, 8, 10
[14] = sc, 120 minutes, 8 1, 10 0,75, arecoline HBr 3,5, ** p < 0,01 for Example 7 only
[15] = sc, 180 minutes, 8 1, 10 0,75, arecoline HBr 3,5
[16] = agonist activity, Tyrode's solution 37° C.
[17] = sc, sub-cutaneous, dose to reduce the body temperature by 1° C.
[18] = oral, dose to reduce the body temperature by 1° C.

Structure (SMILES) | ED50 (Diarrhoea activity) [mg/kg] | variation of the body temperature [2, 8] | variation of the body temperature [2, 9] | variation of the body temperature [2, 10] | variation of the body temperature [2, 12] | variation of the body temperature [2, 13] | variation of the body temperature [2, 14] | variation of the body temperature [2, 15] | EC50 [4, 16] [µM] | ED (-1 C) [1, 17] [mg/kg] | ED (-1 C) [1, 18] [mg/kg] | LD50 at 168 h (in vivo) [mg/kg] | IC50 [6] [µM] | other results
COC(=O)C1=CCCN(C)C1 [Arecoline HBr, reference compound] | 35 | -1,1 °C | -1,0 °C | -0,2 °C | -1,5 °C | -0,1 °C | +0,2 °C | +0,2 °C | – | – | – | – | – | ED (-1 C) ([1]; po): 194 mg/kg; ED (-1 C) ([1]; sc): 3 mg/kg; variation of the body temperature [2, 7]: +0,1 °C; variation of the body temperature [2, 11]: -0,1 °C; variation of the body temperature ([2]; sc, 0 minutes, 8 1, 10 0,75, arecoline HBr 3,5): -0,1 °C
COC(=O)C1=CCCN(C)C1 [Arecoline] | – | – | – | – | – | – | – | – | – | – | – | – | – | effect on patients having a memory defect [3]: positive effect; EC50 [4]: 0.331 µM; duration of action ([5]; in vivo): short duration of action; activity by oral route ([5]; oral route): very weak activity
CON=CC1=CCCN(C)C1 [Example 1, 1-methyl-1,2,5,6-tetrahydropyridin-3-carboxyaldehyde-O-methyloxime hydrochloride] | 0.6 | – | – | – | – | – | – | – | 0.525 | 0.14 | 0.46 | – | – | –
CCON=CC1=CCCN(C)C1.Cl [Example 2, 1-methyl-1,2,5,6-tetrahydropyridin-3-carboxaldehyde-O-ethyloxime hydrochloride] | 50 | – | – | – | – | – | – | – | > 1000 | 11 | 13 | 250 | 180 | –
CON=CC1=CCCNC1.Cl [Example 3, 1,2,5,6-tetrahydropyridin-3-carboxaldehyde-O-methyloxime Hydrochloride] | 0.15 | -1,5 °C | -0,8 °C | -0,2 °C | -1,2 °C | -0,8 °C | -0,2 °C | -0,1 °C | 0.263 | 0.12 | 0.11 | 75 | – | variation of the body temperature [2, 7]: +0.1 °C
CC(C)ON=CC1=CCCN(C)C1 [Example 4, O-isopropyl-N-methyl-1,2,5,6-tetrahydropyridin-3-carboxaldehyde oxime hydrochloride] | > 100 | – | – | – | – | – | – | – | > 1000 | – | 40 | 350 | 11 | –
CC(=O)ON=CC1=CCCN(C)C1 [Example 5, 1-methyl-1,2,5,6-tetrahydropyridin-3-carboxaldehyde-0-acetyl-oxime] | > 100 | – | – | – | – | – | – | – | 51.3 | – | 39 | 500 | – | –
CN(C)CCON=CC1=CCCN(C)C1 [Example 6, 3-[2-(N,N-dimethylaminoethoxyimino)-methyl]-1-methyl-1,2,5,6-tetrahydropyridine] | > 100 | – | – | – | – | – | – | – | 148 | – | 135 | 750 | – | –
CCN1CCC=C(C=NOC)C1.Cl [Example 7, 1-ethyl-1,2,5,6-tetrahydro-pyridin-3-carboxaldehyde-O-methyloxime hydrochloride] | 10 | -1,1 °C | -1,1 °C | -0,6 °C | -0,5 °C | -1,0 °C | -0,6 °C | -0,1 °C | > 1000 | 1.16 | 0.97 | – | 200 | variation of the body temperature [2, 11]: -0,2 °C
CCCN1CCC=C(C=NOC)C1 [Example 8] | 1.7 | -1,5 °C | -1,3 °C | -0,4 °C | -0,7 °C | -1,2 °C | -0,2 °C | -0,1 °C | 25.1 | 0.83 | 0.34 | 100 | – | –
CCCCN1CCC=C(C=NOC)C1 [Example 9, 1-butyl-1,2,5,6-tetrahydropyridin-3-carboxaldehyde-O-methyloxime] | 3.5 | – | – | – | – | – | – | – | > 1000 | 0.85 | 0.79 | 30 | 230 | –
C=CCN1CCC=C(C=NOC)C1 [Example 10, 1-allyl-1,2,5,6-tetrahydropyridin-3-carboxaldehyde-O-methyloxime] | 1.2 | -1,5 °C | -0,7 °C | -0,1 °C | -0,8 °C | -1,0 °C | -0,1 °C | +0,1 °C | 15.8 | 0.86 | 0.34 | 175 | – | variation of the body temperature [2, 7]: -0,1 °C; variation of the body temperature [2, 11]: +0,2 °C
CCCCCN1CCC=C(C=NOC)C1 [Example 11, 1-pentyl-1,2,5,6-tetrahydropyridin-3-carboxaldehyde-O-methyloxime] | 5 | – | – | – | – | – | – | – | > 1000 | 4 | 3 | 175 | 160 | –
C#CCON=CC1=CCCN(C)C1 [Example 12, 1-methyl-1,2,5,6-tetrahydropyridin-3-carboxaldehyde-O-propargyloxime] | 5.5 | – | – | – | – | – | – | – | 0.479 | 0.63 | 2 | 60 | – | –
